Among the data in ChEMBL document CHEMBL1141071, “Carbonic anhydrase inhibitors: stacking with Phe131 determines active site binding region of inhibitors as exemplified by the X-ray crystal structure of a membrane-impermeant antitumor sulfonamide complexed with isozyme II” (J Med Chem, 2005) are Ki values, retold here.

In the assay the target is Carbonic anhydrase 9 (Homo sapiens, UniProt Q16790).

Description: Inhibition of catalytic domain of human recombinant carbonic anhydrase IX

Usually Ki stands for the equilibrium dissociation constant of an inhibitor or competing ligand from its target. Higher therefore signals a looser hold on the target. For `Cc1ccc(-c2cc(C(F)(F)F)nn2-c2ccc(S(N)(=O)=O)cc2)cc1` [CELECOXIB], the Ki was determined as 16 nM.
